Assays:
Assay type in all cases: in vivo
[1] = test system: Japanese bulrush (Scirpus juncoides Roxb.); experiment: Test Example 1: herbicidal effect by soil application to paddy field; conditions: paddy field soil application; active ingredient 1,000 g per 1 hectare; wettable powder added dropwise to water surface the day after sowing; examined on the 21st day after application
In short: (§1)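 Plants were sown in flooded (3 cm) paddy soil and evaluated for herbicidal effect 21 days after soil application in a greenhouse.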

[2] = test system: early watergrass (Echinochloa oryzicola Vasing); experiment: as above; conditions: paddy field soil application; active ingredient 1,000 g per 1 hectare; wettable powder added dropwise to water surface the day after sowing; examined on the 21st day after application
In short: as §1

[3] = test system: heartshape false pickerelweed (Monochoria vaginalis (Burm.f.) C.Presl); experiment: as above; conditions: paddy field soil application; active ingredient 1,000 g per 1 hectare; wettable powder added dropwise to water surface the day after sowing; examined on the 21st day after application
In short: as §1

[4] = test system: barnyardgrass (Echinochloa crus-galli (L.) P. Beauv. var. crus-galli); experiment: Test Example 2: herbicidal effect by soil application to upland field; conditions: soil surface spray, upland field soil, 1,000 g active ingredient per hectare, 21st day after application
In short: (§2)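 After sowing and covering, the soil received an even aqueous spray of wettable powder at a rate of 1,000 g active ingredient/ha (1,000 L/ha). Ratings of herbicidal effect followed a standard scale 21 days post-treatment, with plants held in a greenhouse.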

[5] = test system: green foxtail (Setaria viridis (L.) P. Beauv.); experiment: as above; conditions: soil surface spray, upland field soil, 1,000 g active ingredient per hectare, 21st day after application
In short: as §2

[6] = test system: slender amaranth (Amaranthus viridis L.); experiment: as above; conditions: soil surface spray, upland field soil, 1,000 g active ingredient per hectare, 21st day after application
In short: as §2

[7] = test system: velvetleaf (Abutilon theophrasti medicus); experiment: as above; conditions: soil surface spray, upland field soil, 1,000 g active ingredient per hectare, 21st day after application
In short: as §2

[8] = test system: barnyardgrass (Echinochloa crus-galli (L.) P. Beauv. var. crus-galli); experiment: Test Example 3: herbicidal effect by application to upland field (foliage treatment); conditions: 14th day after application; for herbicidal effect, Barnyardgrass: foliage treatment, 1,000 g active ingredient per 1 hectare, greenhouse; for herbicidal effect (index), Barnyardgrass: foliage treatment, plants grown two weeks, 1,000 g active ingredient per hectare
In short: (§3)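 Plants were sown in field soil and raised in a greenhouse for two weeks before foliar spraying. A water-diluted wettable powder was applied at 1,000 g active ingredient per hectare in 1,000 liters per hectare. Herbicidal effect was scored on a standard scale 14 days later.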

[9] = test system: green foxtail (Setaria viridis (L.) P. Beauv.); experiment: as above; conditions: 14th day after application; for herbicidal effect, Green Foxtail: foliage treatment, 1,000 g active ingredient per 1 hectare, greenhouse; for herbicidal effect (index), Green Foxtail: foliage treatment, plants grown two weeks, 1,000 g active ingredient per hectare
In short: as §3

[10] = test system: slender amaranth (Amaranthus viridis L.); experiment: as above; conditions: 14th day after application; for herbicidal effect, Slender Amaranth: foliage treatment, 1,000 g active ingredient per 1 hectare, greenhouse; for herbicidal effect (index), Slender Amaranth: foliage treatment, plants grown two weeks, 1,000 g active ingredient per hectare
In short: as §3

[11] = test system: velvetleaf (Abutilon theophrasti medicus); experiment: as above; conditions: 14th day after application; for herbicidal effect, Velvetleaf: foliage treatment, 1,000 g active ingredient per 1 hectare, greenhouse; for herbicidal effect (index), Velvetleaf: foliage treatment, plants grown two weeks, 1,000 g active ingredient per hectare
In short: as §3

Row | Structure (SMILES) | herbicidal effect, Scirpus juncoides Roxb. [1] | herbicidal effect, Echinochloa oryzicola Vasing [2] | herbicidal effect, Monochoria vaginalis (Burm. f.) C. Presl [3] | herbicidal effect (index), Barnyardgrass [4] | herbicidal effect (index), Green Foxtail [5] | herbicidal effect (index), Slender Amaranth [6] | herbicidal effect (index), Velvetleaf [7] | herbicidal effect, Barnyardgrass [8] | herbicidal effect, Green Foxtail [9] | herbicidal effect, Slender Amaranth [10] | herbicidal effect, Velvetleaf [11] | herbicidal effect (index), Barnyardgrass [8] | herbicidal effect (index), Green Foxtail [9] | herbicidal effect (index), Slender Amaranth [10] | herbicidal effect (index), Velvetleaf [11]
1 | O=C1CCCC(O)=C1C(=O)c1ccc(C(F)(F)F)n(CC2CCOC2)c1=O (stereo not shown) [I-154] | 5 (90% or more of herbicidal effect and crop phytotoxicity) | 5 (90% or more of herbicidal effect and crop phytotoxicity) | 5 (90% or more of herbicidal effect and crop phytotoxicity) | 4 (70 to less than 90% of herbicidal effect and crop phytotoxicity) | 3 (50 to less than 70% of herbicidal effect and crop phytotoxicity) | 5 (90% or more of herbicidal effect and crop phytotoxicity) | 5 (90% or more of herbicidal effect and crop phytotoxicity) | 4 (70 to less than 90% of herbicidal effect and crop phytotoxicity) | 5 (90% or more of herbicidal effect and crop phytotoxicity) | 5 (90% or more of herbicidal effect and crop phytotoxicity) | 5 (90% or more of herbicidal effect and crop phytotoxicity) |  |  |  | 
2 | Cn1ncc(C(=O)c2ccc(C(F)(F)F)n(-c3ccc4c(c3)OCO4)c2=O)c1O [IV-97] | 5 (90% or more of herbicidal effect and crop phytotoxicity) | 5 (90% or more of herbicidal effect and crop phytotoxicity) | 5 (90% or more of herbicidal effect and crop phytotoxicity) | 5 (90% or more of herbicidal effect and crop phytotoxicity) | 4 (70 to less than 90% of herbicidal effect and crop phytotoxicity) | 5 (90% or more of herbicidal effect and crop phytotoxicity) | 5 (90% or more of herbicidal effect and crop phytotoxicity) | 5 (90% or more of herbicidal effect and crop phytotoxicity) | 5 (90% or more of herbicidal effect and crop phytotoxicity) | 5 (90% or more of herbicidal effect and crop phytotoxicity) | 5 (90% or more of herbicidal effect and crop phytotoxicity) |  |  |  | 
3 | CCCNn1c(C(F)(F)F)ccc(C(=O)c2cnn(C)c2O)c1=O [IV-148] | 5 (90% or more of herbicidal effect and crop phytotoxicity) | 5 (90% or more of herbicidal effect and crop phytotoxicity) | 5 (90% or more of herbicidal effect and crop phytotoxicity) | 5 (90% or more of herbicidal effect and crop phytotoxicity) | 5 (90% or more of herbicidal effect and crop phytotoxicity) | 5 (90% or more of herbicidal effect and crop phytotoxicity) | 5 (90% or more of herbicidal effect and crop phytotoxicity) | 5 (90% or more of herbicidal effect and crop phytotoxicity) | 5 (90% or more of herbicidal effect and crop phytotoxicity) | 5 (90% or more of herbicidal effect and crop phytotoxicity) | 5 (90% or more of herbicidal effect and crop phytotoxicity) |  |  |  | 
4 | Cn1c(C(F)(F)F)ccc(C(=O)C2=C(O)CCCC2=O)c1=O [I-1, 2-[1,2-dihydro-1-methyl-2-oxo-6-(trifluoromethyl)-pyridine-3-carbonyl]-3-hydroxy-2-cyclohexen-1-one] | 5 (90% or more of herbicidal effect and crop phytotoxicity) | 5 (90% or more of herbicidal effect and crop phytotoxicity) | 5 (90% or more of herbicidal effect and crop phytotoxicity) | 5 (90% or more of herbicidal effect and crop phytotoxicity) | 4 (70 to less than 90% of herbicidal effect and crop phytotoxicity) | 5 (90% or more of herbicidal effect and crop phytotoxicity) | 5 (90% or more of herbicidal effect and crop phytotoxicity) |  |  |  |  | 4 (70 to less than 90% of herbicidal effect and crop phytotoxicity) | 3 (50 to less than 70% of herbicidal effect and crop phytotoxicity) | 5 (90% or more of herbicidal effect and crop phytotoxicity) | 5 (90% or more of herbicidal effect and crop phytotoxicity)
5 | CS(=O)(=O)CCCn1c(C(F)(F)F)ccc(C(=O)C2=C(O)CCCC2=O)c1=O [I-71] | 5 (90% or more of herbicidal effect and crop phytotoxicity) | 5 (90% or more of herbicidal effect and crop phytotoxicity) | 5 (90% or more of herbicidal effect and crop phytotoxicity) | 5 (90% or more of herbicidal effect and crop phytotoxicity) | 5 (90% or more of herbicidal effect and crop phytotoxicity) | 5 (90% or more of herbicidal effect and crop phytotoxicity) | 5 (90% or more of herbicidal effect and crop phytotoxicity) |  |  |  |  | 5 (90% or more of herbicidal effect and crop phytotoxicity) | 5 (90% or more of herbicidal effect and crop phytotoxicity) | 5 (90% or more of herbicidal effect and crop phytotoxicity) | 5 (90% or more of herbicidal effect and crop phytotoxicity)
6 | COC(C)Cn1c(C(F)(F)F)ccc(C(=O)C2=C(O)C3CCC(C3)C2=O)c1=O (stereo not shown) [III-24] | 5 (90% or more of herbicidal effect and crop phytotoxicity) | 5 (90% or more of herbicidal effect and crop phytotoxicity) | 5 (90% or more of herbicidal effect and crop phytotoxicity) | 5 (90% or more of herbicidal effect and crop phytotoxicity) | 5 (90% or more of herbicidal effect and crop phytotoxicity) | 5 (90% or more of herbicidal effect and crop phytotoxicity) | 5 (90% or more of herbicidal effect and crop phytotoxicity) | 5 (90% or more of herbicidal effect and crop phytotoxicity) | 5 (90% or more of herbicidal effect and crop phytotoxicity) | 5 (90% or more of herbicidal effect and crop phytotoxicity) | 5 (90% or more of herbicidal effect and crop phytotoxicity) |  |  |  | 
7 | Cn1ncc(C(=O)c2ccc(C(F)(F)F)n(-c3cc(F)ccc3F)c2=O)c1O [IV-83] | 5 (90% or more of herbicidal effect and crop phytotoxicity) | 5 (90% or more of herbicidal effect and crop phytotoxicity) | 5 (90% or more of herbicidal effect and crop phytotoxicity) | 5 (90% or more of herbicidal effect and crop phytotoxicity) | 5 (90% or more of herbicidal effect and crop phytotoxicity) | 5 (90% or more of herbicidal effect and crop phytotoxicity) | 5 (90% or more of herbicidal effect and crop phytotoxicity) | 5 (90% or more of herbicidal effect and crop phytotoxicity) | 5 (90% or more of herbicidal effect and crop phytotoxicity) | 5 (90% or more of herbicidal effect and crop phytotoxicity) | 5 (90% or more of herbicidal effect and crop phytotoxicity) |  |  |  | 
8 | O=C1CCCC(O)=C1C(=O)c1ccc(C(F)(F)F)n(-c2cc(F)ccc2F)c1=O [I-103] | 5 (90% or more of herbicidal effect and crop phytotoxicity) | 5 (90% or more of herbicidal effect and crop phytotoxicity) | 5 (90% or more of herbicidal effect and crop phytotoxicity) | 5 (90% or more of herbicidal effect and crop phytotoxicity) | 5 (90% or more of herbicidal effect and crop phytotoxicity) | 5 (90% or more of herbicidal effect and crop phytotoxicity) | 5 (90% or more of herbicidal effect and crop phytotoxicity) |  |  |  |  | 5 (90% or more of herbicidal effect and crop phytotoxicity) | 5 (90% or more of herbicidal effect and crop phytotoxicity) | 5 (90% or more of herbicidal effect and crop phytotoxicity) | 5 (90% or more of herbicidal effect and crop phytotoxicity)
